The results in this text go back to US20140194373A1, “COSMETIC USE OF […] A DERIVATIVE THEREOF IN THE PREVENTION AND/OR TREATMENT OF BODY ODOUR” (NESTEC S.A., priority 2011, published 2014).

Each structure is given as a SMILES string.

For this test, the system named is dermicidin. The test can be described thus: Differential proteomic analysis (iTRAQ) of stratum corneum varnish strips after oral supplementation, randomized double-blind study. The following applies: 500 mg of hesperidin per day, samples at D1 and D168, left leg, compared with placebo maltodextrin, n=33 per group. The class given is in vivo, women. The procedure: The test product consists of hesperidin and is administered orally.
The active agent was tested alone in a randomized double-blind study.
66 women were divided into two groups, one of these groups testing maltodextrin (n=33 group A), the other testing hesperidin (n=33 group B).
The supplementation was 500 mg of hesperidin per day.
The evolution of various cutaneous markers was studied by proteomics on samples of isolated stratum corneum as indicated hereinbelow.
A sample is taken at times D1 and D168 with varnish strips in order to remove only part of the stratum corneum, i.e. at most the first 4 to 5 layers of stratum corneum.
To do this, a 41 μm Nylon filter gauze of Millipore NY41 type is applied to a predefined area of the left leg. […]
These skin samples (varnish strips of stratum corneum) were then analysed by proteomics by means of an “isobaric marking” technique to evaluate the expression of the protein(s) under study. […]
The marked peptides are detected by mass spectrometry with the intrinsic mass of the peptide +145 Da, originating from the reagent. In the peptide fragmentation step, the contribution of each of the reagents is assessed by the release of ions (fragments) having different specific masses. […]

Regarding `COc1ccc([C@@H]2CC(=O)c3c(O)cc(O[C@@H]4O[C@H](CO[C@@H]5O[C@@H](C)[C@H](O)[C@@H](O)[C@H]5O)[C@@H](O)[C@H](O)[C@H]4O)cc3O2)cc1O` [hesperidin, (S)-7-[[6-0-(6-deoxy-α-L-mannopyranosyl)-β-D-glucopyranosyl]oxy]-2,3-dihydro-5-hydroxy-2-(3-hydroxy-4-methoxyphenyl)-4H-1-benzopyran-4-one], the “expression of dermicidin in stratum corneum” value is “significantly stimulates the expression of dermicidin”.
